According to ChEMBL document CHEMBL1201862, “PubChem BioAssay data set” (2004):
The source made the active and inactive calls.

Legend:
[1] = target: 1-acylglycerol-3-phosphate O-acyltransferase ABHD5/Perilipin-5 (Homo sapiens, UniProt Q00G26+Q8WTS1); assay: Luminescence-based biochemical high throughput dose response assay for inhibitors of the interaction of the lipase co-activator protein, abhydrolase domain containing 5 (ABHD5) with perilipin-5 (MLDP; PLIN5) (2K validation set). [Related pubchem assays (depositor defined):AID493035, AID493241]
1-acylglycerol-3-phosphate O-acyltransferase ABHD5/Perilipin-5, sequence (Q00G26 whole entry, the tested form may be a part): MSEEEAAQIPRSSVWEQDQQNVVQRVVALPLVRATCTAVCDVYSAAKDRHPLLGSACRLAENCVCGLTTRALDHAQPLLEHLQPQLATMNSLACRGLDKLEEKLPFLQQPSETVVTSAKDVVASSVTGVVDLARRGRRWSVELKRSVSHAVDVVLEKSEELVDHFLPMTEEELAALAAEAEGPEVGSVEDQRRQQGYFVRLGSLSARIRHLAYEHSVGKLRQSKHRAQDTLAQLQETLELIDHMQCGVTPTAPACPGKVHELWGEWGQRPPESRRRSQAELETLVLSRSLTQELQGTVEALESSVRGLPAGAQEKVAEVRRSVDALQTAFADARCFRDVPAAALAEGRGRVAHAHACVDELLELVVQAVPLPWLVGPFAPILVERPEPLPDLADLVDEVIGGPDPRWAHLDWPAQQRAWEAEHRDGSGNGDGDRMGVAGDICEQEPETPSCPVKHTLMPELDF
1-acylglycerol-3-phosphate O-acyltransferase ABHD5/Perilipin-5, sequence (Q8WTS1 whole entry, the tested form may be a part): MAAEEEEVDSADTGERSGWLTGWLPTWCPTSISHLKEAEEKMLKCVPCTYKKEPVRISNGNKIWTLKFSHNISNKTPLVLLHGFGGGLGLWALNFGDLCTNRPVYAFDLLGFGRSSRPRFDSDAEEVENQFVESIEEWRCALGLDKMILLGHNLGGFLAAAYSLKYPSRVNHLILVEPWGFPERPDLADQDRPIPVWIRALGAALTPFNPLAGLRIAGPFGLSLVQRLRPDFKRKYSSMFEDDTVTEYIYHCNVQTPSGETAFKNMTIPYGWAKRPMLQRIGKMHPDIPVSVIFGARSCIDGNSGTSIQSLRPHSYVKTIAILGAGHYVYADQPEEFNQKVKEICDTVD

[2] = target: Perilipin-1/ABHD5 (Homo sapiens, UniProt O60240+Q8WTS1); assay: Luminescence-based biochemical high throughput dose response assay for inhibitors of the interaction of the lipase co-activator protein, abhydrolase domain containing 5 (ABHD5) with perilipin-1 (PLIN1) (2K validation set). [Related pubchem assays (depositor defined):AID493027, AID493057]
Perilipin-1/ABHD5, sequence (Q8WTS1 whole entry, the tested form may be a part): as above
Perilipin-1/ABHD5, sequence (O60240 whole entry, the tested form may be a part): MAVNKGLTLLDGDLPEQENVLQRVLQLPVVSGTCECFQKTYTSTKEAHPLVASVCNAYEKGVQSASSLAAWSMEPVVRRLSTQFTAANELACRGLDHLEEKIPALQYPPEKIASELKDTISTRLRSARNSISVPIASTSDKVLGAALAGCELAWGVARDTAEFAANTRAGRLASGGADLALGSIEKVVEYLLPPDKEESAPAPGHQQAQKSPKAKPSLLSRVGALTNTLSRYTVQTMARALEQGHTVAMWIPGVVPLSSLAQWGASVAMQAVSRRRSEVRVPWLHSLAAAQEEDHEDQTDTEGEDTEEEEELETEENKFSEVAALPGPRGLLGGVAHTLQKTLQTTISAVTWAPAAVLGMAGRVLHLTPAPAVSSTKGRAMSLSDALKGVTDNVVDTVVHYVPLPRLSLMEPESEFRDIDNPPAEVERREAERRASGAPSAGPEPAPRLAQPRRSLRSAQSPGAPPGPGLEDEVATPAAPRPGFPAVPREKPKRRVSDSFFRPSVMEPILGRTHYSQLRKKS

[3] = tested on: Staphylococcus aureus; assay: Inhibitors of Bacterial Quorum Sensing Structure Activity Relationship (SAR) Analysis: Dose Response Assay. [Related pubchem assays: 700, 527 ]; type: functional, organism-based
[4] = tested on: Vero; assay: cytotoxicity of synthesized analogs in Vero 76, SAR follow-up, cytotoxicity control for West Nile virus antiviral project, Vero 76 cells (AID 2414); type: functional; conditions: Chlorocebus sabaeus
[5] = tested on: Vero; assay: cytotoxicity of synthesized analogs in Vero cells, SAR follow-up, cytotoxicity control for West Nile virus antiviral project, cell-based, set II (AID 2402); type: functional; conditions: Chlorocebus sabaeus
[6] = tested on: Vero; assay: Vero E6 cell cytotoxicity, SAR follow-up, cytotoxicity control for West Nile virus antiviral project, synthesized analogs (AID 2244); type: functional; conditions: Chlorocebus sabaeus
[7] = A Cell Based Assay for the Identification of Probe candidate Compounds with Anti- Venezuelan Equine Encephalitis virus. [Related pubchem assays: 2409, 2419, 1621, 2238, 2405, 2024, 2065, 2402, 2414, 1635, 1650, 2244 ]; type: functional
[8] = tested on: Vero; assay: West Nile virus CPE inhibition, SAR follow-up, cell-based, synthesized analogs (AID 2238); type: functional; conditions: Chlorocebus sabaeus
[9] = tested on: Vero; assay: West Nile virus cytopathic effect inhibition, cell-based (AID 2419); type: functional; conditions: Chlorocebus sabaeus
[10] = target: Dual specificity protein phosphatase 3 (Homo sapiens, UniProt P51452); assay: VHR1 inhibitor Ki determination, SAR follow-up, biochemical, colorimetric (AID 2004)
Dual specificity protein phosphatase 3, sequence (P51452 whole entry): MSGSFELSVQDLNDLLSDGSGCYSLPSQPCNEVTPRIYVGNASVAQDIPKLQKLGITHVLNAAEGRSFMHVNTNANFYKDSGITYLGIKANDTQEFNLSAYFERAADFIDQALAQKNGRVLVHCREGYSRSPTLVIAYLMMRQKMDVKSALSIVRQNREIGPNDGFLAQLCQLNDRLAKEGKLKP

[11] = target: Large T antigen (Simian virus 40, UniProt P03070); assay: A confirmatory biochemical assay using the ADP-Hunter methodology, purified TAg, and ATP to quantify activity of synthesized compounds that inhibit the ATPase activity of Tag (3). [Related pubchem assays (depositor defined):AID1903, AID1909, AID2102, AID2501, AID2615, AID2775, AID435001, AID449729]; parameters: species or system Betapolyomavirus macacae
Large T antigen, sequence (P03070 whole entry): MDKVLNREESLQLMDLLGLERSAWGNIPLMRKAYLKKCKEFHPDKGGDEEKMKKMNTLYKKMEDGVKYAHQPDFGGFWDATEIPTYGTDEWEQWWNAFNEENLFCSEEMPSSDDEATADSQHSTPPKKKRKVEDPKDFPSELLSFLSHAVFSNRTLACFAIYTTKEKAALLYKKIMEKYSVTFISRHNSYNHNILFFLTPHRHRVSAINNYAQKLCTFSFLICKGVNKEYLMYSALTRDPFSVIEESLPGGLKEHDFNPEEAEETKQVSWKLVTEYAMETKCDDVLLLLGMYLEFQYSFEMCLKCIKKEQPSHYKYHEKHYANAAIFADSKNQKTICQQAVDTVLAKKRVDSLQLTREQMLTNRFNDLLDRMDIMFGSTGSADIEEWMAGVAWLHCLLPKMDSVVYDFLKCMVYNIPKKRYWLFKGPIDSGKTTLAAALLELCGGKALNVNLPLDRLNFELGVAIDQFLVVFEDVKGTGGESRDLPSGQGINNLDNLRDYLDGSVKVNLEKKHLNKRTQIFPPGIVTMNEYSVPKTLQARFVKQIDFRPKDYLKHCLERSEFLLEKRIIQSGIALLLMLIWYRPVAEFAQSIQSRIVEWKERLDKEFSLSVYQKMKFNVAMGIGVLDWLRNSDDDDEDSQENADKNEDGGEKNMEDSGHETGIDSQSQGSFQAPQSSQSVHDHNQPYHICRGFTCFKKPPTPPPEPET

[12] = target: Mannose-6-phosphate isomerase (Homo sapiens, UniProt P34949); assay: inhibitors of human PMI, primary screen, biochemical, fluorescence intensity, coupled assay (AID 1209)
Mannose-6-phosphate isomerase, sequence (P34949 whole entry): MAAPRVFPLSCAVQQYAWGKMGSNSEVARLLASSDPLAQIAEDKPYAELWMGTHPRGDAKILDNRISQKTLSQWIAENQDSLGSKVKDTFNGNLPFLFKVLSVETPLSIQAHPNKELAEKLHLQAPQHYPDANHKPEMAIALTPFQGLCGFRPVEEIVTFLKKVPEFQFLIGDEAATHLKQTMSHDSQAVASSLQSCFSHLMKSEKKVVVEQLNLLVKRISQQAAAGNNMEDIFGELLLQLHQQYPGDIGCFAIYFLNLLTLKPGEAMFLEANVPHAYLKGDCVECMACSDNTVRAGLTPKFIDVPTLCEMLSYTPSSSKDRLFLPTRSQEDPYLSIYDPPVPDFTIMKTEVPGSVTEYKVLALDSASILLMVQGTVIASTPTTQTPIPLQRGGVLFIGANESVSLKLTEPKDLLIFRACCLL

[13] = target: CAAX prenyl protease 2 (Saccharomyces cerevisiae S288c, UniProt Q03530); type: biochemical
CAAX prenyl protease 2, sequence (Q03530 whole entry): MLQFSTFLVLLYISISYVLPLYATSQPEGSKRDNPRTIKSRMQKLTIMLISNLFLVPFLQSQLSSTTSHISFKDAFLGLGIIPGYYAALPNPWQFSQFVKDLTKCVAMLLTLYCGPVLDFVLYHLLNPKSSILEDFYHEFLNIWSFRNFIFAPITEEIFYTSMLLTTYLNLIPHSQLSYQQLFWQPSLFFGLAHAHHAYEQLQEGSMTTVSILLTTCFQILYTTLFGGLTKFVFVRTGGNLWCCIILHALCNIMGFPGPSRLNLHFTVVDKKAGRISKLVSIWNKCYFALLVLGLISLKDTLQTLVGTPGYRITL

[14] = target: T1, Delta-type opioid receptor (Homo sapiens, UniProt P41143); assay: HTS Image-Based Screen for Antagonists of the DOR Receptor. [Related pubchem assays (depositor defined):AID1777, AID1785, AID1786, AID2133]; type: functional
T1 sequence (P41143 whole entry): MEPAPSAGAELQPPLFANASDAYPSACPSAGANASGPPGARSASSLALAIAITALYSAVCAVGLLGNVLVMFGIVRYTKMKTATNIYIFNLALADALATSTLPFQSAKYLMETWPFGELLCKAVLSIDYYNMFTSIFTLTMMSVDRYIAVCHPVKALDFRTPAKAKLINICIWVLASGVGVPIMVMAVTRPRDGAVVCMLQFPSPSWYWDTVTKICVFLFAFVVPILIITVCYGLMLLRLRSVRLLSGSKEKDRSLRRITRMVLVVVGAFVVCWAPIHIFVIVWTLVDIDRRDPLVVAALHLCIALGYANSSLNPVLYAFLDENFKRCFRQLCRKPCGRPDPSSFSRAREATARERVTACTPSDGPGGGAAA

[15] = target: Mu-type opioid receptor (Homo sapiens, UniProt P35372); assay: HTS Image-Based Screen for Agonists of the MOR Receptor. [Related pubchem assays (depositor defined):AID1777, AID1785, AID1786, AID2133]; type: functional;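 note: imaging of beta-arrestin GFP recruitment into spots after receptor activation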
[16] = target: T1, Delta-type opioid receptor; assay: HTS Image-Based Screen for Agonists of the DOR Receptor. [Related pubchem assays (depositor defined):AID1777, AID1786, AID2133]; type: functional
[17] = target: T2, Kappa-type opioid receptor (Homo sapiens, UniProt P41145); type: functional
T2 sequence (P41145 whole entry): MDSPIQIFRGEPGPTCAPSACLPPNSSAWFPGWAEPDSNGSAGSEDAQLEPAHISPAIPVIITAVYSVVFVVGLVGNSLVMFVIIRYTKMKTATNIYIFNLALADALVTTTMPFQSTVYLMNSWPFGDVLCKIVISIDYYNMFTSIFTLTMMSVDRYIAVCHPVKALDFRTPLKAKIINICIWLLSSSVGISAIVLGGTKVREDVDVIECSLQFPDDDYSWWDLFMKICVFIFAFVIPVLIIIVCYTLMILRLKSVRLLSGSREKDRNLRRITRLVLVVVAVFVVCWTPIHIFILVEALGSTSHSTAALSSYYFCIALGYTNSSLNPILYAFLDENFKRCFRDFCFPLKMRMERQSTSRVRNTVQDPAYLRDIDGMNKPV

[18] = target: T2, Kappa-type opioid receptor; type: functional; remark: listed apart in the source
[19] = target: T2, Kappa-type opioid receptor; type: functional; remark: listed apart in the source
[20] = target: Cytochrome P450 2D6 (Homo sapiens, UniProt P10635); assay: qHTS Assay for Inhibitors and Substrates of Cytochrome P450 2D6. [Related pubchem assays: 410 ]; type: ADME; conditions: read-out: Potency
Cytochrome P450 2D6, sequence (P10635 whole entry): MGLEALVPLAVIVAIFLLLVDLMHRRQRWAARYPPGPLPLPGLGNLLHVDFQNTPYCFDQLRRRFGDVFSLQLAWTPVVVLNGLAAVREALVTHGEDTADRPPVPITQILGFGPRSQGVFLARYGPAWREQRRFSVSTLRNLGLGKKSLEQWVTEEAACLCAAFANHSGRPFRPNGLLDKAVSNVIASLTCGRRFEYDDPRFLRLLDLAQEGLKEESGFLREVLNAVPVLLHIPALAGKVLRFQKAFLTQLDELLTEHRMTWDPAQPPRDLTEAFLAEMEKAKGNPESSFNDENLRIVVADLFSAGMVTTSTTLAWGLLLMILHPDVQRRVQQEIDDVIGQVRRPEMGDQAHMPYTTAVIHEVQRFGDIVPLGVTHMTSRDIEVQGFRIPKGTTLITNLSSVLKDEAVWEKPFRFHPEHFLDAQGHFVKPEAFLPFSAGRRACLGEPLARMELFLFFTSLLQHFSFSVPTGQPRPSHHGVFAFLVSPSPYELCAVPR

[21] = target: Cytochrome P450 2C9 (Homo sapiens, UniProt P11712); conditions: Potency
Cytochrome P450 2C9, sequence (P11712 whole entry): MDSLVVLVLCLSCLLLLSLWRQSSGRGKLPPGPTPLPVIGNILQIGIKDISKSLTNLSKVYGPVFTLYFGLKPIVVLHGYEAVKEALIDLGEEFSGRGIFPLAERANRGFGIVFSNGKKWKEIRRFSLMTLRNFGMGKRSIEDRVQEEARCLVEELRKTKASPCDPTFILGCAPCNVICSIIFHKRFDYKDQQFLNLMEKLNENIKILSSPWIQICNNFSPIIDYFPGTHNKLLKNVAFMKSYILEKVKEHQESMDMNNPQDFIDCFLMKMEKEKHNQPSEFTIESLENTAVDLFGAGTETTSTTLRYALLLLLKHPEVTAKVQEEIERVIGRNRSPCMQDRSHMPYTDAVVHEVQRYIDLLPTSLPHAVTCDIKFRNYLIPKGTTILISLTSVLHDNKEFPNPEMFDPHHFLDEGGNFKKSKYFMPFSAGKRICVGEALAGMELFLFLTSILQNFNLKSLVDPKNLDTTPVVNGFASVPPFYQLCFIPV

## CCCCC/C=C\C[C@H](O)/C=C/c1cccc(C[C@H](O)CCCCO)n1
[1]
  IC50: 5.28 µM (active)
[2]
  IC50: 5.05 µM (active)

## CC1CCCN(C(C(=O)Nc2ccc3c(c2)OCO3)c2ccccc2)C1 (stereo unspecified)
[3]
  IC50: 0.162 µM (active)

## COc1ccc(-c2csc(N(CCCN(C)C)C(=O)c3ccccc3Cl)n2)cc1
[4]
  CC50: 20.2 µM (active)
[5]
  CC50: 9.54 µM (active)
[6]
  CC50: 28.4 µM (active)
[7]
  IC50: 5.37 µM (active)
[8]
  IC50: 29.5 µM (active)
[9]
  IC50: > 25 µM (active)

## COc1cccc2c1NC(c1cccc3ccccc13)C1CC=CC21 (stereo unspecified)
[10]
  Ki: 141 µM (inactive)

## Oc1ccc(Cc2ccc(O)cc2)cc1
[11]
  IC50: 70.1 µM (active)

## c1ccc(Nc2cccc(Nc3ccccc3)n2)cc1
[12]
  IC50: > 50 µM (not active)
[13]
  AC50: 13.3 µM (active)

## CCC(C)(C(=O)NC1CCCCC1)N(Cc1cccs1)C(=O)c1ccccn1 (stereo unspecified)
[14]
  IC50: > 32 µM (inactive)
[15]
  EC50: > 32 µM (inactive)
[16]
  EC50: > 32 µM (inactive)
[17]
  EC50: < 0.5 µM
[18]
  IC50: > 5 µM (inactive)
[19]
  EC50: 0.0599 µM

## CC(=O)OCC1OC(c2ccc3c(c2)OCO3)C=CC1OC(C)=O (stereo unspecified)
[20]
  AC50: 7.94 µM (inconclusive)
[21]
  AC50: 5.01 µM (inconclusive)
